Measurements from patent US7419981B2, “Synergistic combinations of an alpha-2-delta ligand and a cGMP phosphodieterse 5 inhibitor” (Pfizer Inc., priority 2002, dated 2008).
Counter-ions that a name gives are not always drawn.

Columns and labels:
[1] = system: CCI-induced static allodynia; assay: CCI-induced static allodynia, paw withdrawal threshold to von Frey hairs; format: in vivo, rat; conditions: for blockade of static allodynia: alone; for minimum effective dose (MED), blockade of maintenance of static allodynia: administered alone, gabapentin p.o., sildenafil s.c.; for time of peak antiallodynic actions: post administration, CCI-induced static model
Experimental: Male Sprague Dawley rats (200-250 g), obtained from Charles River, (Margate, Kent, U.K.) were housed in groups of 6. All animals were kept under a 12 h light/dark cycle (lights on at 07 h 00 min) with food and water ad libitum. All experiments were carried out by an observer unaware of drug treatments.
Animals were anaesthetised with isoflurane. The sciatic nerve was ligated as previously described by Bennett and Xie, 1988. Animals were placed on a homeothermic blanket for the duration of the procedure. After surgical preparation the common sciatic nerve was exposed at the middle of the thigh by blunt dissection through biceps femoris. Proximal to the sciatic trifurcation, about 7 mm of nerve was freed of adhering tissue and 4 ligatures (4-0 silk) were tied loosely around it with about 1 mm spacing. The incision was closed in layers and the wound treated with topical antibiotics.
Dose-responses to gabapentin and sildenafil were first performed alone in the CCI model. Combinations were examined following a fixed ratio design. A dose-response to each fixed dose ratio of the combination was performed. On each test day, baseline paw withdrawal thresholds (PWT) to von Frey hairs and paw withdrawal latencies (PWL) to a cotton bud stimulus were determined prior to drug treatment. Gabapentin was administered p.o. directly followed by s.c. administration of sildenafil and PWT and PWL re-examined for up to 5 h. The data are expressed at the 2 h time point for both the static and dynamic data as this timepoint represent the peak antiallodynic effects.
Static allodynia was measured using Semmes-Weinstein von Frey hairs (Stoelting, Illinois, U.S.A.). Animals were placed into wire mesh bottom cages allowing access to the underside of their paws. Animals were habituated to this environment prior to the start of the experiment. Static allodynia was tested by touching the plantar surface of the animals right hind paw with von Frey hairs in ascending order of force (0.7, 1.2, 1.5, 2, 3.6, 5.5, 8.5, 11.8, 15.1 and 29 g) for up to 6 sec. Once a withdrawal response was established, the paw was re-tested, starting with the next descending von Frey hair until no response occurred. The highest force of 29 g lifted the paw as well as eliciting a response, thus represented the cut off point. The lowest amount of force required to elicit a response was recorded as the PWT in grams.

[2] = system: CCI-induced dynamic allodynia; assay: CCI-induced dynamic allodynia, paw withdrawal latency to cotton bud stimulus; format: in vivo, rat; conditions: for blockade of dynamic allodynia: alone; for minimum effective dose (MED), blockade of maintenance of dynamic allodynia: administered alone, gabapentin p.o., sildenafil s.c.; for time of peak antiallodynic actions: post administration, CCI-induced dynamic model
Experimental: Male Sprague Dawley rats (200-250 g), obtained from Charles River, (Margate, Kent, U.K.) were housed in groups of 6. All animals were kept under a 12 h light/dark cycle (lights on at 07 h 00 min) with food and water ad libitum. All experiments were carried out by an observer unaware of drug treatments. Animals were anaesthetised with isoflurane. The sciatic nerve was ligated as previously described by Bennett and Xie, 1988. Animals were placed on a homeothermic blanket for the duration of the procedure. After surgical preparation the common sciatic nerve was exposed at the middle of the thigh by blunt dissection through biceps femoris. Proximal to the sciatic trifurcation, about 7 mm of nerve was freed of adhering tissue and 4 ligatures (4-0 silk) were tied loosely around it with about 1 mm spacing. The incision was closed in layers and the wound treated with topical antibiotics. […] Combinations were examined following a fixed ratio design. A dose-response to each fixed dose ratio of the combination was performed. On each test day, baseline paw withdrawal thresholds (PWT) to von Frey hairs and paw withdrawal latencies (PWL) to a cotton bud stimulus were determined prior to drug treatment. […] Dynamic allodynia was assessed by lightly stroking the plantar surface of the hind paw with a cotton bud. Care was taken to perform this procedure in fully habituated rats that were not active to avoid recording general motor activity. At least three measurements were taken at each time point the mean of which represented the paw withdrawal latency (PWL). […] Thus 15 s effectively represents no withdrawal. A withdrawal response was often accompanied with repeated flinching or licking of the paw. Dynamic allodynia was considered to be present if animals responded to the cotton stimulus before 8 s of stroking.

[3] = system: CCI-induced static allodynia; assay: CCI-induced static allodynia, paw withdrawal threshold to von Frey hairs; format: in vivo, rat; conditions: Table 1; ratio 1:0, pregabalin 30 mg/kg alone

In the case of `CCCc1nn(C)c2c(=O)[nH]c(-c3cc(S(=O)(=O)N4CCN(C)CC4)ccc3OCC)nc12` [Sildenafil, 5-[2-ethoxy-5-(4-methyl-1-piperazinylsulphonyl)phenyl]-1-methyl-3-n-propyl-1,6-dihydro-7H-pyrazolo[4,3-d]pyrimidin-7-one], the “blockade of static allodynia” value ([1]; 30 mg/kg s.c.) is reported as about 60%, the “% reversal of allodynia” value ([1]; Table 1, ratio 0:1, sildenafil 30 mg/kg alone) is reported as 50% and the “minimum effective dose (MED), blockade of maintenance of static allodynia” value [1] is reported as 10 mg/kg. The “time of peak antiallodynic actions” value [1] was 2 h, the “blockade of dynamic allodynia” value ([2]; 30 mg/kg s.c. (MED)) was 25% and the “minimum effective dose (MED), blockade of maintenance of dynamic allodynia” value [2] was 30 mg/kg. For the same compound, the “time of peak antiallodynic actions” value [2] was 2 h.

In the case of `CCCC[C@@H](C)C[C@H](N)CC(=O)O` (as salt: hydrochloride), the melting point is reported as 142.5 to 143.3 °C.

In the case of `CCCC(C)(C)C[C@H](N)CC(=O)O` (as salt: hydrochloride) (hydrate or solvate), the melting point is reported as 194.2 to 195.2 °C.

For `CCC[C@@H](C)C[C@H](CN)C(=O)O` (as salt: hydrochloride), the melting point was 226.3 to 228 °C.

Compound `CCCC(C)(C)CC(CN)C(=O)O.Cl` (centres unmarked) has a melting point of 229.5 to 231 °C.

In the case of `CCCOc1ccc(S(=O)(=O)N2CCN(CC)CC2)cc1-c1nc2c(CC)n(Cc3ccccn3)nc2c(=O)[nH]1` [Compound AA, 3-Ethyl-5-[5-(4-ethyl-piperazine-1-sulfonyl)-2-propoxy-phenyl]-2-pyridin-2-ylmethyl-2,6-dihydro-pyrazolo[4,3-d]pyrimidin-7-one], the “% reversal of allodynia” value ([1]; Table 2, ratio 0:1, 30 mg/kg alone (dose column headed Sildenafil)) is reported as 50% and the “time of peak antiallodynic actions” value [1] is reported as 2 h.

`CCC[C@@H](C)C[C@H](N)CC(=O)O.Cl` showed a melting point of 142.5 to 142.7 °C.

For `CC(C)C[C@H](CN)CC(=O)O` [Pregabalin, (S)-(+)-4-amino-3-(2-methylpropyl)butanoic acid], the “time of peak antiallodynic actions” value [1] was 2 h and the “% reversal of allodynia” value [3] was 100%.

For `NCC1(CC(=O)O)CCCCC1` [Gabapentin, 1-(aminomethyl)-cyclohexylacetic acid], the “blockade of static allodynia” value ([1]; 100 mg/kg p.o.) was “complete blockade”, the “% reversal of allodynia” value ([1]; Table 2, ratio 1:0, gabapentin 100 mg/kg alone) was 100% and the “minimum effective dose (MED), blockade of maintenance of static allodynia” value [1] was 10 mg/kg. For the same compound, the “time of peak antiallodynic actions” value [1] was 2 h, the “blockade of dynamic allodynia” value ([2]; 100 mg/kg p.o.) was “complete blockade” and the “minimum effective dose (MED), blockade of maintenance of dynamic allodynia” value [2] was 10 mg/kg. The “time of peak antiallodynic actions” value [2] was 2 h.
